target: T1, CCR2 (Homo sapiens, UniProt P41597); experiment: MCP-1 Receptor Binding Assay in THP-1 Cells; conditions: read-out: MCP1B_v3 IC50
T1 construct: host or cells: THP-1 (human monocytic cell line)
Procedure, shortened: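 Human monocytic THP-1 cells incubated 2 h at 30 °C with 0.5 nM 125I-MCP-1 and varying concentrations of test compound or unlabelled MCP-1. Cells filter-harvested and counted by scintillation; blank subtracted, compared with vehicle; nonspecific binding with 1 μM cold MCP-1.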

T1 sequence (P41597 whole entry): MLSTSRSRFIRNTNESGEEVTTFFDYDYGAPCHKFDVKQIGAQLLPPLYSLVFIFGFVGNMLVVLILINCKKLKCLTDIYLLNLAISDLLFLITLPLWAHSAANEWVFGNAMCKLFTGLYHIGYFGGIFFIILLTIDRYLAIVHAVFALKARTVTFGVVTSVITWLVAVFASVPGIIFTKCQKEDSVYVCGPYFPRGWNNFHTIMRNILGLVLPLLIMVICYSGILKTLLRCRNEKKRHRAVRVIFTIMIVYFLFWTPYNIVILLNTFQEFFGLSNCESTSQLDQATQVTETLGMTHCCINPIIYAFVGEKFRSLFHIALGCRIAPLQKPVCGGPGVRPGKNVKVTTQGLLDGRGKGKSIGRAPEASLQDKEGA

First: CO[C@@H]1COCC[C@@H]1N[C@@H]1C[C@H]2CN(C(N)=O)C[C@@]2(C(=O)N2CCc3ncc(C(F)(F)F)cc3C2)C1 [Example 3]
Second: COC1COCCC1N[C@@H]1C[C@H]2CN(C(N)=O)C[C@@]2(C(=O)N2CCc3ncc(C(F)(F)F)cc3C2)C1 (relative stereo) [Example 2, (3aR,5R,6aR)-5-(((3S*,4S*)-(3-Methoxytetrahydro-2H-pyran-4-yl)amino)-3a-(3-(trifluoromethyl)-5,6,7,8-tetrahydro-1,6-naphthyridine-6-carbonyl)hexahydrocyclopenta[c]pyrrole-2(1H)-carboxamide]
The IC50 of the first is 2-fold lower: 0.03 µM for the first, 0.06 µM for the second. The first is the more potent here.

Compared with COC1COCCC1N[C@@H]1C[C@H]2CN(C(N)=S)C[C@@]2(C(=O)N2CCc3ncc(C(F)(F)F)cc3C2)C1 (relative stereo) [Example 25, (3aR,5R,6aR)-5-(((3S*,4S*)-3-Methoxytetrahydro-2H-pyran-4-yl)amino)-3a-(3-(trifluoromethyl)-5,6,7,8-tetrahydro-1,6-naphthyridine-6-carbonyl)hexahydrocyclopenta-[c]pyrrole-2(1H)-carbothioamide], C=CCOC(=O)N1C[C@@H]2C[C@@H](NC3CCOCC3OC)C[C@]2(C(=O)N2CCc3ncc(C(F)(F)F)cc3C2)C1 (relative stereo) [Example 38, (3aR,5R,6aR)-Allyl 5-(((3S*,4S*)-3-methoxytetrahydro-2H-pyran-4-yl)amino)-3a-(3-(trifluoromethyl)-5,6,7,8-tetrahydro-1,6-naphthyridine-6-carbonyl)hexahydrocyclopenta[c]pyrrole-2(1H)-carboxylate] is 2.2-fold lower in IC50: 0.09 µM for the first, 0.04 µM for the second.

COC1COCCC1N[C@@H]1C[C@H]2CN(C(N)=O)C[C@@]2(C(=O)NCc2cccc(C(F)(F)F)c2)C1 (relative stereo) [Example 10, (3aR,5R,6aR)-5-(((3S*,4S*)-3-Methoxytetrahydro-2H-pyran-4-yl)amino)-N^3a-(3-(trifluoromethyl)benzyl)hexahydrocyclopenta[c]pyrrole-2,3a(1H)-dicarboxamide] and COC1COCCC1N[C@@H]1C[C@H]2CN(C(N)=O)C[C@@]2(C(=O)NCc2cc(F)cc(C(F)(F)F)c2)C1 (relative stereo) [Example 11, (3aR,5R,6aR)-N^3a-(3-Fluoro-5-(trifluoromethyl)benzyl)-5-(((3S*,4S*)-3-methoxytetrahydro-2H-pyran-4-yl)amino)hexahydrocyclopenta[c]pyrrole-2,3a(1H)-dicarboxamide] are the same in IC50: 0.32 µM for the first, 0.32 µM for the second.

Going from COC1COCCC1N[C@@H]1C[C@H]2CN(C(=O)OCCN3CCOCC3)C[C@@]2(C(=O)N2CCc3ncc(C(F)(F)F)cc3C2)C1 (relative stereo) [Example 39, (3aR,5R,6aR)-2-Morpholinoethyl 5-(((3S*,4S*)-3-methoxytetrahydro-2H-pyran-4-yl)amino)-3a-(3-(trifluoromethyl)-5,6,7,8-tetrahydro-1,6-naphthyridine-6-carbonyl)hexahydrocyclopenta[c]pyrrole-2(1H)-carboxylate] to COC1COCCC1N[C@@H]1C[C@H]2CN(C(=O)OCCN3CCCC3)C[C@@]2(C(=O)N2CCc3ncc(C(F)(F)F)cc3C2)C1 (relative stereo) [Example 45, (3aR,5R,6aR)-2-(Pyrrolidin-1-yl)ethyl 5-(((3S*,4S*)-3-methoxytetrahydro-2H-pyran-4-yl)amino)-3a-(3-(trifluoromethyl)-5,6,7,8-tetrahydro-1,6-naphthyridine-6-carbonyl)hexahydrocyclopenta[c]pyrrole-2(1H)-carboxyl], the IC50 rises from 0.01 µM to 0.07 µM (7-fold).

Compared with COC1COCCC1N[C@@H]1C[C@H]2CN(C(=O)NC(C)C)C[C@@]2(C(=O)N2CCc3ncc(C(F)(F)F)cc3C2)C1 (relative stereo) [Example 14, (3aR,5R,6aR)-N-Isopropyl-5-(((3S*,4S*)-(3-methoxytetrahydro-2H-pyran-4-yl)amino)-3a-(3-(trifluoromethyl)-5,6,7,8-tetrahydro-1,6-naphthyridine-6-carbonyl)hexahydrocyclopenta[c]pyrrole-2(1H)-carboxamide], COC1COCCC1N[C@@H]1C[C@H]2CN(C(=O)NCC(C)C)C[C@@]2(C(=O)N2CCc3ncc(C(F)(F)F)cc3C2)C1 (relative stereo) [Example 15, (3aR,5R,6aR)-N-Isobutyl-5-(((3S*4S*)-(3-methoxytetrahydro-2H-pyran-4-yl)amino)-3a-(3-(trifluoromethyl)-5,6,7,8-tetrahydro-1,6-naphthyridine-6-carbonyl)hexahydrocyclopenta-[c]pyrrole-2(1H)-carboxamide] is 3.7-fold lower in IC50: 0.41 µM for the first, 0.11 µM for the second.

Going from COC1COCCC1N[C@@H]1C[C@H]2CN(C3=NCCS3)C[C@@]2(C(=O)N2CCc3ncc(C(F)(F)F)cc3C2)C1 (relative stereo) [Example 112, ((3aR,5R,6aR)-2-(4,5-Dihydrothiazol-2-yl)-5-(((3S*,4S*)-3-methoxytetrahydro-2H-pyran-4-yl)amino)octahydrocyclopenta[c]pyrrol-3a-yl)(3-(trifluoromethyl)-7,8-dihydro-1,6-naphthyridin-6(5H)-yl)methanone] to COC1COCCC1N[C@@H]1C[C@H]2CN(C3CCOCC3OC)C[C@@]2(C(=O)N2CCc3ncc(C(F)(F)F)cc3C2)C1 (relative stereo) [Example 104, ((3aR,5R,6aR)-2-((3S*,4S*)-3-Methoxytetrahydro-2H-pyran-4-yl)-5-(((3S*,4S*)-3-methoxytetrahydro-2H-pyran-4-yl)amino)octahydrocyclopenta[c]pyrrol-3a-yl)(3-(trifluoromethyl)-7,8-dihydro-1,6-naphthyridin-6(5H)-yl)methanone], the IC50 falls from 3.66 µM to 1.98 µM (1.8-fold).

Compared with COc1cccc(COC(=O)N2C[C@@H]3C[C@@H](NC4CCOCC4OC)C[C@]3(C(=O)N3CCc4ncc(C(F)(F)F)cc4C3)C2)c1 (relative stereo) [Example 60, (3aR,5R,6aR)-3-Methoxybenzyl 5-(((3S*,4S*)-3-methoxytetrahydro-2H-pyran-4-yl)amino)-3a-(3-(trifluoromethyl)-5,6,7,8-tetrahydro-1,6-naphthyridine-6-carbonyl)hexahydrocyclopenta-[c]pyrrole-2(1H)-carboxylate], COC1COCCC1N[C@@H]1C[C@H]2CN(C(=O)OCc3ccc(C#N)cc3)C[C@@]2(C(=O)N2CCc3ncc(C(F)(F)F)cc3C2)C1 (relative stereo) [Example 58, (3aR,5R,6aR)-4-Cyanobenzyl 5-(((3S*,4S*)-3-methoxytetrahydro-2H-pyran-4-yl)amino)-3a-(3-(trifluoromethyl)-5,6,7,8-tetrahydro-1,6-naphthyridine-6-carbonyl)hexahydrocyclopenta-[c]pyrrole-2(1H)-carboxylate] is 2-fold higher in IC50: 0.1 µM for the first, 0.2 µM for the second.

First: COC1COCCC1N[C@@H]1C[C@H]2CN(C3CC3)C[C@@]2(C(=O)N2CCc3ccc(C(F)(F)F)cc3C2)C1 (relative stereo) [Example 95, ((3aR,5R,6aR)-2-Cyclopropyl-5-(((3S*,4S*)-3-methoxytetrahydro-2H-pyran-4-yl)amino)octahydrocyclopenta[c]pyrrol-3a-yl)(7-(trifluoromethyl)-3,4-dihydroisoquinolin-2(1H)-yl)methanone]
Second: COC1COCCC1N[C@@H]1C[C@H]2CN(C(=O)c3ccccc3)C[C@@]2(C(=O)N2CCc3ncc(C(F)(F)F)cc3C2)C1 (relative stereo) [Example 69, ((3aR,5R,6aR)-2-Benzoyl-5-(((3S*,4S*)-3-methoxytetrahydro-2H-pyran-4-yl)amino)-octahydrocyclopenta[c]pyrrol-3a-yl)(3-(trifluoromethyl)-7,8-dihydro-1,6-naphthyridin-6(5H)-yl)methanone]
The IC50 of the first is 5-fold lower: 0.03 µM for the first, 0.15 µM for the second. The first is the more potent here.

First: COC1COCCC1N[C@@H]1C[C@H]2CN(C(=O)Oc3ccccc3)C[C@@]2(C(=O)N2CCc3ncc(C(F)(F)F)cc3C2)C1 (relative stereo) [Example 37, (3aR,5R,6aR)-Phenyl 5-(((3S*,4S*)-3-methoxytetrahydro-2H-pyran-4-yl)amino)-3a-(3-(trifluoromethyl)-5,6,7,8-tetrahydro-1,6-naphthyridine-6-carbonyl)hexahydro-cyclopenta[c]pyrrole-2(1H)-carboxylate]
Second: CNC(=S)N(C1CCOCC1OC)[C@@H]1C[C@H]2CN(C(=O)OCc3ccccc3)C[C@@]2(C(=O)N2CCc3ncc(C(F)(F)F)cc3C2)C1 (relative stereo) [Example 57, (3aR,5R,6aR)-Benzyl 5-(1-((3S*,4S*)-3-methoxytetrahydro-2H-pyran-4-yl)-3-methylthioureido)-3a-(3-(trifluoromethyl)-5,6,7,8-tetrahydro-1,6-naphthyridine-6-carbonyl)hexahydrocyclopenta[c]pyrrole-2(1H)-carboxylate]
The IC50 of the first is 14-fold lower: 0.15 µM for the first, 2.03 µM for the second.

Compared with COC1COCCC1N[C@@H]1C[C@H]2CN(C(=O)/C=C/CN3CCCC3)C[C@@]2(C(=O)N2CCc3ncc(C(F)(F)F)cc3C2)C1 (relative stereo) [Example 88, (E)-1-((3aR,5R,6aR)-5-(((3S*,4S*)-3-methoxytetrahydro-2H-pyran-4-yl)amino)-3a-(3-(trifluoromethyl)-5,6,7,8-tetrahydro-1,6-naphthyridine-6-carbonyl)hexahydro-cyclopenta[c]pyrrol-2(1H)-yl)-4-(pyrrolidin-1-yl)but-2-en-1-one], COC1COCCC1N[C@@H]1C[C@H]2CN(C(=O)CNC(=O)OC(C)(C)C)C[C@@]2(C(=O)N2CCc3ncc(C(F)(F)F)cc3C2)C1 (relative stereo) [Example 87, tert-Butyl (2-((3aR,5R,6aR)-5-(((3S*,4S*)-3-methoxytetrahydro-2H-pyran-4-yl)amino)-3a-(3-(trifluoromethyl)-5,6,7,8-tetrahydro-1,6-naphthyridine-6-carbonyl)hexahydrocyclopenta[c]pyrrol-2(1H)-yl)-2-oxoethyl)carbamate] is 9-fold higher in IC50: 0.04 µM for the first, 0.36 µM for the second.

NC(=O)N1C[C@@H]2C[C@@H](NC3CCOCC3)C[C@]2(C(=O)N2CCc3ncc(C(F)(F)F)cc3C2)C1 [Example 8] showed an IC50 of 0.17 µM.
